The experiment deals with mice subjected to UCMS. Description: TST in unpredictable chronic mild stress (UCMS) model. Type of experiment: in vivo. To be noted: UCMS mice (4 weeks); injection day 29, TST 30 min after; vs vehicle; FIG. 3B. On the procedure:
TST was performed 30 min after injection time. To perform the TST, the tails of the mice were wrapped with tape that covered approximately 4/5 of the tail length and then fixed upside down on a hook. The immobility time of each mouse was recorded and tracked over a 6 min period. The Porsolt FST was conducted using vertical clear glass cylinder (10 cm in diameter, 25 cm in height) filled with water (25° C.). The mice spent 6 min in the water and immobility was scored from 2 to 6 min. A mouse was regarded as immobile when floating motionless or making only those movements necessary to keep its head above the water.
This study investigated the effects of ClonBac in a mouse model of unpredictable chronic mild stress (0). For the UCMS paradigm, mice were housed in individual cages and were subjected to 4 weeks of stressors, with two stressors applied within a 24 hr period. Stressors were applied pseudo-randomly and included: intermittent bell (10 db, 1/10 s), continuous white noise for 4 h, rat odor, 45° cage tilt for 4 h, 30 minute cage shaking, soiled bedding for 8 hr, paired housing with a new partner for 2 h, overnight illumination, removal of nesting material for 12 hr, placement of a novel object in home cage for 3 h, and physical restraint for 1 h. Stressors continued to be applied during the behavioral testing phase. […]

For `NCC(CC(=O)O)c1ccc(Cl)cc1` (stereo not drawn) [baclofen, β-(4-chlorophenyl)-γ-aminobutyric acid], the TST immobility time entry is listed as “significantly attenuated immobility TST time”.
